# From publication PMC11110727, “Exploiting thiol-functionalized benzosiloxaboroles for achieving diverse substitution patterns – synthesis, characterization and biological evaluation of promising antibacterial agents” (RSC Medicinal Chemistry, 2024)
# Like-named read-outs stand apart in the source and are kept apart here.
# Assays:
# [1] = tested on: S. maltophilia ATCC 12714; assay: Antibacterial activity: MIC/MBC, MIC with PAβN, disc-diffusion; format: cell-based, Stenotrophomonas maltophilia; settings: S. maltophilia ATCC 12714; for MIC: Stenotrophomonas maltophilia, ATCC12714, read-out: MIC
# Outline: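 Strains were subcultured twice on TSA at 30 °C. They were then tested by disc diffusion (EUCAST/CLSI), by CLSI broth-microdilution MIC in Mueller–Hinton II broth and by CLSI MBC, with compounds in DMSO.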
# [2] = tested on: Staphylococcus aureus, MSSA and MRSA strains; assay: Antibacterial activity against S. aureus strains (text summaries); format: cell-based; settings: for MBC: lowest MBC values; for Eagle effect (paradoxical growth) during MBC determination: S. aureus ATCC 6538P and five MRSA clinical strains
# Description: (§1) Direct antimicrobial activity was determined against the following standard strains: (1) Gram-positive cocci: methicillin-sensitive Staphylococcus aureus ATCC 6538P (MSSA), methicillin-resistant S. aureus subsp. aureus ATCC 43300 (MRSA), S. epidermidis ATCC 12228, Enterococcus faecium ATCC 6057, E. faecalis ATCC 29212, Bacillus subtilis ATCC 6633; (2) Gram-negative bacteria from Enterobacteriales order: Klebsiella pneumoniae ATCC 13883, Escherichia coli ATCC 25922, Enterobacter cloacae DSM 6234, Proteus mirabilis ATCC 12453, Serratia marcescens ATCC 13880; (3) Gram-negative non-fermentative rods: Acinetobacter baumannii ATCC 19606, Pseudomonas aeruginosa ATCC 27853, Stenotrophomonas maltophilia ATCC 12714, S. maltophilia ATCC 13637, Burkholderia cepacia ATCC 25416, Bordetella bronchiseptica ATCC 4617; (4) yeasts: Candida albicans ATCC 90028, C. krusei ATCC 6258, C. parapsilosis ATCC 22019, C. tropicalis (Castellani) Berkhout ATCC 750, C. tropicalis IBA 171, C. guilliermondii IBA 155, and Saccharomyces cerevisiae ATCC 9763. Moreover, 5 clinical strains of methicillin-resistant S. aureus were also included: NMI 664 K, NMI 1576 K, NMI 1712 K, NMI 1991 K, and NMI 2541 K. All strains were stored at −80 °C. Prior to testing, each bacterial strain was subcultured twice on tryptic soy agar TSA (bioMerieux) medium and yeast strains on Sabouraud dextrose agar (bioMerieux) for 24–48 h at 30 °C to ensure viability. The antimicrobial activity was evaluated as previously described[26] by the disc-diffusion method and the MIC determination assays according to the EUCAST (ref. [71] and [72]) and CLSI (ref. [53] and [73]) recommendations. Assessment of bactericidal (MBC) and fungicidal (MFC) activities was performed according to the CLSI recommendations.[54,74] The following reference agents were used: fluconazole (in the case of fungi), linezolid (for Gram-positive bacteria), and nitrofurantoin (for Gram-negative rods). The new benzosiloxaboroles were dissolved in DMSO (Sigma).
# S. marcescens ATCC 13880 = assay: Antibacterial activity: MIC/MBC, MIC with PAβN, disc-diffusion; format: cell-based, Serratia marcescens; settings: Serratia marcescens, ATCC13880; S. marcescens ATCC 13880; read-out: MIC
# Description: as §1, with “The following reference agents were used: fluconazole (in the case of fungi), linezolid (for Gram-positive bacteria), and nitrofurantoin (for Gram-negative rods).” left out
# Considering that the MDR efflux pumps often contribute to Gram-negative rod resistance, the MIC values of studied agents, with or without the pump inhibitor, PAβN (20 μg mL^−1) (Sigma), were determined.[75] The MIC was determined using Mueller–Hinton II broth medium (MHB) (Becton Dickinson) by the broth microdilution method, according to the CLSI guideliness.[53] To minimize the influence of PAβN on the destabilization of bacterial cell covers, the tests were conducted in the presence of 1 mM MgSO4 (Sigma).[76] At least a 4-fold reduction in the MIC value after the addition of PAβN was considered significant.[56,77]
# S. aureus NMI 664 K MRSA = assay: Antibacterial activity against clinical MRSA: MIC/MBC; format: cell-based; settings: Staphylococcus aureus, NMI 664 K MRSA
# Description: as §1
# [3] = tested on: Human normal lung fibroblasts MRC-5; assay: MTT-based viability (cytotoxicity) assay; settings: for IC50: Homo sapiens, MRC5, 48 h
# Outline: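 MRC-5 pd30 human lung fibroblasts in supplemented MEME at 37 °C, 5% CO2; viability by MTT, absorbance 570 nm, triplicate, as percent of control cells. Selectivity index taken as IC50/MIC against S. aureus MRSA strains.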
Compound,MIC [1] [µg/mL],MBC ([2]; Staphylococcus aureus) [µg/mL],MIC (S. marcescens ATCC 13880) [µg/mL],"-fold reduction of MIC in the presence of PAβN ([1]; PAβN 20 μg mL^−1, MHB + 1 mM MgSO4)",Eagle effect (paradoxical growth) during MBC determination [2],"MIC ([2]; Staphylococcus aureus, both MSSA and MRSA strains, read-out: MIC values against Staphylococcus aureus) [µg/mL]",MBC (S. aureus NMI 664 K MRSA; read-out: MBC (first MBC where Eagle effect)) [µg/mL],MIC (S. aureus NMI 664 K MRSA; read-out: MIC) [µg/mL],MBC (S. aureus NMI 664 K MRSA; read-out: second MBC (Eagle effect)) [µg/mL],"viability of MRC-5 ([3]; 6.25 µg·mL−1, 48 h)","viability of MRC-5 ([3]; 12.5 µg·mL−1, 48 h)","viability of MRC-5 ([3]; 25 µg·mL−1, 48 h)","viability of MRC-5 ([3]; 50 µg·mL−1, 48 h)","viability of MRC-5 ([3]; 100 µg·mL−1, 48 h)","viability of MRC-5 ([3]; 200 µg·mL−1, 48 h)","viability of MRC-5 ([3]; 400 µg·mL−1, 48 h)",IC50 [3] [µg/mL]
"C[Si]1(C)OB(O)c2cc(F)c(S)c(F)c21 [Compound 1e, 5,7-Difluoro-6-mercapto-1,1-dimethylbenzo[c][1,2,5]oxasilaborol-3(1H)-ol]",> 400,25 to 50,> 400,–,–,–,–,–,–,–,–,–,–,–,–,–,–
"C[Si]1(C)OB(O)c2ccc(S)c(F)c21 [Compound 2e, 7-Fluoro-6-mercapto-1,1-dimethylbenzo[c][1,2,5]oxasilaborol-3(1H)-ol]",> 100,25 to 50,> 100,–,–,–,–,–,–,–,–,–,–,–,–,–,–
"COC(=O)CCSc1ccc2c(c1F)[Si](C)(C)OB2O [Compound 4, Methyl 3-((7-fluoro-3-hydroxy-1,1-dimethyl-1,3-dihydrobenzo[c][1,2,5]oxasilaborol-6-yl)thio)propanoate]",> 400,–,> 400,2 -fold,Eagle effect,–,–,–,–,–,–,–,–,–,–,–,–
"C[Si]1(C)OB(O)c2cc(F)c(SCCC#N)c(F)c21 [Compound 6, 3-((5,7-Difluoro-3-hydroxy-1,1-dimethyl-1,3-dihydrobenzo[c][1,2,5]oxasilaborol-6-yl)thio)propanenitrile]",> 400,–,> 400,–,Eagle effect,1.56 to 12.5,25,12.5,> 400,104.0±5.7 % of control ± SD,112.1±1.8 % of control ± SD,104.7±6.7 % of control ± SD,108.3±3.0 % of control ± SD,90.4±0.5 % of control ± SD,43.6±5.1 % of control ± SD,29.5±5.8 % of control ± SD,140
"C[Si]1(C)OB(O)c2ccc(SC3CC(=O)N(c4ccc(Br)c(C(F)(F)F)c4)C3=O)c(F)c21 (centres unmarked) [Compound 17, 1-(4-Bromo-3-(trifluoromethyl)phenyl)-3-((7-fluoro-3-hydroxy-1,1-dimethyl-1,3-dihydrobenzo[c][1,2,5]oxasilaborol-6-yl)thio)pyrrolidine-2,5-dione]",> 200,–,> 200,–,–,–,–,–,–,99.9±4.6 % of control ± SD,96.1±2.3 % of control ± SD,87.6±0.2 % of control ± SD,89.2±8.5 % of control ± SD,71.2±1.3 % of control ± SD,29.5±0.3 % of control ± SD,0.0±0.0 % of control ± SD,140
"C[Si]1(C)OB(O)c2cc(F)c(S(N)(=O)=O)c(F)c21 [Compound 27, 5,7-Difluoro-3-hydroxy-1,1-dimethyl-1,3-dihydrobenzo[c][1,2,5]oxasilaborole-6-sulfonamide]",> 400,–,> 400,–,–,–,–,–,–,74.1±3.1 % of control ± SD,74.1±1.4 % of control ± SD,79.3±9.5 % of control ± SD,79.7±7.5 % of control ± SD,74.3±7.9 % of control ± SD,68.5±3.4 % of control ± SD,66.2±2.4 % of control ± SD,> 400
"C[Si]1(C)OB(O)c2cc(F)c(S(=O)(=O)Nc3ccc(F)cc3)c(F)c21 [Compound 28, 5,7-Difluoro-N-(4-fluorophenyl)-3-hydroxy-1,1-dimethyl-1,3-dihydrobenzo[c][1,2,5]oxasilaborole-6-sulfonamide]",> 400,–,> 400,–,–,–,–,–,–,93.3±1.9 % of control ± SD,82.6±1.2 % of control ± SD,75.1±5.4 % of control ± SD,65.5±1.8 % of control ± SD,47.7±3.7 % of control ± SD,32.5±0.0 % of control ± SD,15.6±0.1 % of control ± SD,74.9
"C[Si]1(C)OB(O)c2cc(F)c(S(=O)(=O)N3CCOCC3)c(F)c21 [Compound 29, 5,7-Difluoro-1,1-dimethyl-6-(morpholinosulfonyl)benzo[c][1,2,5]oxasilaborol-3(1H)-ol]",> 400,–,> 400,–,–,–,–,–,–,90.1±3.4 % of control ± SD,90.6±4.5 % of control ± SD,86.8±4.3 % of control ± SD,80.8±3.4 % of control ± SD,74.1±0.5 % of control ± SD,69.6±2.4 % of control ± SD,60.4±5.2 % of control ± SD,> 400
